The text below walks through data of US11352331B2, “Crystal and salt of 4-(naphthalen-1-yl)-4H-1,2,4-triazole compound and preparation method therefor” (MEDSHINE DISCOVERY INC., priority 2017, dated 2022).

pIC50: −log10 of the molar value. Read-outs that look alike come from different tables or passages of the source.

For data set [1] the following is noted: human, 0-144 hour, after lesinurad, cited from earlier work.
The subject of data set [2] is Liver cells. To be noted: Rat; cited from earlier work.
The test system of data set [3] is Liver cells. The conditions noted are these: Dog; cited from earlier work.
The subject of data set [4] is Liver cells. To be noted: Monkey; cited from earlier work.
The test system of data set [5] is Liver cells. To be noted: Human; cited from earlier work.
Another data set concerns human liver cells. Kind of data set: Metabolite detection after incubation in human liver cells for 120 minutes (LC-UV-MSn). To be noted: for UV area percentage: 10 μM. It is filed as in vitro ADME. As for the experimental part:
The objective of this experiment is detect the metabolites of the compounds after incubation in human liver cells for 120 minutes using LC-UV-MS^n (n=1-2). After data collection, MetaboLynx™ software was used to analyze MS and MS^2 data.
After the cells were incubated with the samples for 2 hours, protein was precipitated using acetonitrile containing formic acid and then the mixture was centrifuged. The supernatant was taken out and blow-dried with nitrogen, and then redissolved and injected for analysis.

The nature of data set [6]: Pharmacokinetics in cynomolgus monkeys after IV and PO administration. It is filed as in vivo. To be noted: for Mutual transformation between the two axially chiral isomers in vivo: circulation system; for Vd: read-out: Apparent volume of distribution Vdss; for clearance: read-out: Clearance rate Cl; for half-life: read-out: Half-life T1/2 (converted); for C0: read-out: Initial concentration C0; for MRT inf: read-out: Residence time MRT0-inf; for Cmax: read-out: Peak concentration Cmax; for Tmax: read-out: Time to peak Tmax. Here is the method:
24 healthy adult male cynomolgus monkeys were divided into 8 groups (there were IV and PO groups for each compound) with 3 animals per group.
An appropriate amount of the samples was weighted and dissolved in a certain amount of DMSO by ultrasound, followed by addition of PEG400 solution to obtain clear solutions (DMSO/PEG400/H2O (5/40/55)) of the compounds to be tested with a concentration of 2 mg/mL for IV administration.
An appropriate amount of the samples was weighted and dissolved in a certain amount of DMSO by ultrasound, followed by addition of 0.5% MC solution to obtain suspensions (DMSO/0.5% MC (5/95)) of the compounds to be tested with a concentration of 2 mg/mL for PO administration.
24 male cynomolgus monkeys were divided into 8 groups with 3 animals per group, and the drugs were administered through IV and PO after the animals had been fasting overnight. The dose for IV administration was 2 mg/kg and the dosing volume was 1 mL/kg; the dose for PO administration was 10 mg/kg and the dosing volume was 5 mL/kg.
In the IV administration groups, approximately 200 μL of blood was collected 0.083, 0.25, 0.5, 1, 2, 4, 6, 8, and 24 hours after administration; the collected blood samples were added into anticoagulation tubes containing K2-EDTA and centrifuged at 3000 rpm for 15 minutes; the plasma was isolated and stored at −80° C. In the PO administration groups, the blood was collected 0.25, 0.5, 1, 2, 4, 6, 8, and 24 hours after administration, and other operations were the same as in the IV administration group. After the plasma samples were pre-treated to precipitate the protein, the drug concentration in the plasma was determined by LC/MS/MS method. The linear range of the analysis method was 20.00-6000 nM. In PO administration group, urine was collected 0-24 hours after administration, and the drug concentration in the urine was determined by LC/MS/MS method. The linear range of the analysis method was 20.00-6000 nM.

Data set [7] can be described thus: Solid stability test of the crystal form A of compound 1. It is filed as physicochemical. To be noted: high temperature, high humidity and strong light. The source says: Samples placed under high temperature and high humidity conditions were sealed with aluminum foil paper and small holes were punched in the aluminum foil paper to ensure that the sample could fully contact with ambient air; samples placed under strong light conditions were sealed with threaded caps. The samples placed under different conditions were sampled and tested on the 5th day and 10th day (XRPD and HPLC), and the test results were compared with the initial test results obtained on day 0.

A further data set has as its target T1, URAT-1 (Homo sapiens, UniProt Q96S37).
T1 construct: expressed in transfected cells
T1 sequence (Q96S37 1-553): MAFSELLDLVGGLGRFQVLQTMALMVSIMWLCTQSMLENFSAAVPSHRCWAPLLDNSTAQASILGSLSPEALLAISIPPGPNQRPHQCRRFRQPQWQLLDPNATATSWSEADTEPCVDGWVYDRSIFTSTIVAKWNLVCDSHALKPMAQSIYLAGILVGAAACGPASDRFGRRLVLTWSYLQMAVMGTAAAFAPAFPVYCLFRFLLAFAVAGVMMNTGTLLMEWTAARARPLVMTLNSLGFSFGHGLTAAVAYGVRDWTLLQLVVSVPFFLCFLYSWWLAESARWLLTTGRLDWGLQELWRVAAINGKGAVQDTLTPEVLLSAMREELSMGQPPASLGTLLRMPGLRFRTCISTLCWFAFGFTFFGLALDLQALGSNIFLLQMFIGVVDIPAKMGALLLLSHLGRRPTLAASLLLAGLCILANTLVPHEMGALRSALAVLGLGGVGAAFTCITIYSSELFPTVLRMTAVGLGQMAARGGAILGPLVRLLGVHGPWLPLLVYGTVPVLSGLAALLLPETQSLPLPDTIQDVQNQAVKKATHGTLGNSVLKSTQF
In words: Inhibition of 14C-uric acid uptake in MDCK cells stably transfected with URAT-1 gene. It is filed as cell-based. To be noted: MDCK cells stably transfected with URAT-1, substrate 14C-uric acid 50 μM; read-out: IC50 of the inhibitory effect on URAT-1.

For the next data set, the target named is T2, OAT-4 (Homo sapiens, UniProt Q9NSA0).
T2 construct: expressed in transfected cells; host or cells: MDCK (canine kidney) cells; the empty-vector control is pcDNA3.1
T2 sequence (Q9NSA0 1-550): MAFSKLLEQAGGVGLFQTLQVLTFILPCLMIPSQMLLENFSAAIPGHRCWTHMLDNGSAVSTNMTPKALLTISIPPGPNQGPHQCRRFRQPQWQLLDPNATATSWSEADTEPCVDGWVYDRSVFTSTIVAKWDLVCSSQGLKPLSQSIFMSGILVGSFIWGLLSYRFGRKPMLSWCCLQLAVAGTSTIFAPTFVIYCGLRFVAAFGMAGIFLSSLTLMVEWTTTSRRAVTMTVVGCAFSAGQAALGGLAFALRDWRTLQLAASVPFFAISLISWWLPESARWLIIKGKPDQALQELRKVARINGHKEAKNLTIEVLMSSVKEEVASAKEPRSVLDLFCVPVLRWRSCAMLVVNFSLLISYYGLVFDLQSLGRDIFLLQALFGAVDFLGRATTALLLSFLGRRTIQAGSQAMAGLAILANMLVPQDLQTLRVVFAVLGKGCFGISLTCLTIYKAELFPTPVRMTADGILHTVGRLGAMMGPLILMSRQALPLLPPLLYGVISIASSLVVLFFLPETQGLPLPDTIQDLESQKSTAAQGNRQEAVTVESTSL
In words: Inhibition of substrate uptake in MDCK cells overexpressing OAT-4. The format is cell-based. The conditions noted are these: MDCK-OAT4 cells.

The conditions of data set [8]: Liver microsomes, Monkey; cited from earlier work.
The mark [9] stands for this setting: PO, 10 mg/kg, listed as Compound 1a (crystal form B).
The mark [10] stands for this setting: male, cynomolgus monkey, plasma, iv, 2 mg/kg, IV, 2 mg/kg.
Setting [11] is: male, cynomolgus monkey, plasma, po, 10 mg/kg, PO, 10 mg/kg.
Setting [12] is: IV, 2 mg/kg, listed as Compound 1b (crystal form C).
[13] abbreviates: PO, 10 mg/kg, listed as Compound 1b (crystal form C).

Description for OAT-4: The IC50 values of the compounds in inhibiting reabsorption of specific substrates were determined using MDCK (canine kidney cell) cell line stably transfected with OAT-4 (organic anion transporter-4) gene.
The cell culture medium used in the intake inhibition experiment was DMEM (cell essential medium culture medium) supplemented with 10% FBS (containing penicillin and streptomycin). […] The cell suspensions were adjusted to obtain a density of 2.0-3.0×10^5 cells/mL with medium, and then inoculated into 24-well cell culture plates in an amount of 1 mL/well. The cells were cultured in an incubator with 5% CO2 and saturated air humidity at 37° C. for 2-3 days, after which the cells grew over the wells. […]
The uptake value of the transporter cells in the group containing only the radiolabeled substrate (deducting the uptake value U0 cells with empty vector in the background group) was defined as 100% (control, Uc), which was counted as a standard for the calculation of the percentage (%) of the intake value U (after deducting the background) in each administration group after adding the tested compounds against the intake value Uc in the control group, and the inhibitory rate (IR) of each concentration on the activity of the transporter was calculated to express the extent of the inhibitory effect of the compounds on the transporters. […]
Description for URAT-1: The IC50 values of the compounds in inhibiting uric acid reabsorption were determined using MDCK (canine kidney cell) cell line stably transfected with DRAT-1 (uric acid transporter) gene.
DRAT-1 (MDCK) cell line: MDCK cells stably transfected with URAT-1 gene.
Cell culture medium: MEM (minimum essential medium Eagle) medium supplemented with 10% FBS (fetal bovine serum), 1% sodium pyruvate and 250 μg/mL G418 (geneticin).
1) The supernatant of the cell culture medium was removed by aspiration and the cells were rinsed with 10 mL PBS (phosphate buffered saline solution).
2) Preheated trypsin was added into the rinsed cell culture flask, and then the flask was rotated to make the trypsin evenly cover the bottom of the flask and the cells were digested at room temperature.
3) 10-15 mL of culture medium was used to suspend the cells in each T150 flask. 0.1 mL of the cells was sucked out and 2-fold diluted with trypan blue solution, and then the cells were counted. […]
^14C labelled-uric acid solution was diluted and added into the cell plate to obtain a final concentration of 50 μM. […] After adding the scintillation liquid, the signal was read in a liquid scintillation counter Tri-Carb.
According to the luminescent data, the inhibitory effect of the compounds on URAT-1 was analyzed, and the percent inhibition was calculated. […]

Take `O=C(O)CSc1nncn1-c1ccc(C2(O)CC2)c2ccccc12` [Compound M5]: the “Percentage of the administered dose” value in [1] (Faeces) is given as 3.6%.

For the compound `O=C(O)CSc1nnc(Br)n1-c1ccc(C2CC2)c2c1C=CC(O)C2O` (stereo not drawn) [Compound M4], the “Amount of lesinurad and metabolites (Total 100)” value in the data set with Liver cells [2] is “not detected”; with Liver cells [3], “not detected”; in the data set with Liver cells [4] it was 0.47%; in the data set with Liver cells [5], 5.69%. Moreover, the “Percentage of the administered dose” value is reported as 5.0% in data set [1] (Faeces) and 15.7% in [1] (Urine).

For `O=C(O)CSc1nncn1-c1ccc(C2CC2)c2ccccc12` [Compound M2], the results for the “Percentage of the administered dose” value in data set [1] (Faeces) and in data set [1] (Urine) were 4.8% and 0.3%, respectively.

As to `O=C(O)CSc1nnc(Br)n1-c1c(Cl)cc(C2CC2)c2ccccc12` (single isomer, unassigned) [Compound 1a], in the data set on human liver cells, the Metabolite detection result was “no metabolite was detected” and the UV area percentage stood at 100%. For the same compound, the “Area under the curve AUG0-inf” value in data set [6] (IV, 2 mg/kg, listed as Compound 1a (crystal form B)) stood at 15.709 µM·h. In addition, in data set [6] (setting [9]), the “Area under the curve AUG0-inf” value stood at 89.77 µM·h; the “Bioavailability F” value came out at 132%; the “Mean drug concentration in urine (0-24 h) Curine, 0-24 h” value (from here on “Mean drug concentration in urine”) stood at 54.403 µM. In addition, in [6], the “Mutual transformation between the two axially chiral isomers in vivo” value is reported as “no mutual transformation”. For the same compound, in data set [6] (setting [10]), the Vd stood at 0.533 L/kg, the clearance was 4.88 mL/min/kg, the half-life is 3.39 h and the C0 was 32 µM. Moreover, the MRT inf in data set [6] (setting [10]) was 1.83 h. Moreover, in data set [6] (setting [11]), the half-life is 4.1 h, the Cmax stood at 22.6 µM, the MRT inf is 4.65 h and the Tmax is 1.33 h.

Turning to `O=C(O)CSc1nnc(Br)n1-c1c(Cl)cc(C2CC2)c2ccccc12` [Compound 1], the “Solid stability (conclusion)” value in data set [7] was “good stability”. The pIC50 on URAT-1 was 4.98. In addition, in [6] (IV, 2 mg/kg), the “Area under the curve AUG0-inf” value worked out at 18.389 µM·h. Also, in data set [6] (PO, 10 mg/kg), the “Area under the curve AUG0-inf” value amounted to 120.062 µM·h and the “Mean drug concentration in urine” value stood at 38.915 µM. In addition, in data set [6] (setting [10]), the Vd came out at 1.09 L/kg, the clearance was 4.2 mL/min/kg, the half-life was 3.61 h and the C0 amounted to 42.2 µM. Further, the MRT inf in [6] (setting [10]) turned out to be 4.01 h. Besides, the bioavailability in data set [6] (male, cynomolgus monkey, plasma, po, 10 mg/kg, PO, 10 mg/kg, read-out: Bioavailability F) was determined as 131%. In addition, in data set [6] (setting [11]), the half-life was 3.34 h, the Cmax was found to be 46.1 µM, the MRT inf stood at 3.76 h and the Tmax came to 0.83 h. Also, the pIC50 at OAT-4 (substrate 3H-estrone ammonium sulfate, read-out: IC50 of the inhibition on OAT-4 transporting 3H-ES (3H-estrone ammonium sulfate)) is 4.77. Moreover, the pIC50 at OAT-4 (substrate 14C-uric acid, read-out: IC50 of the inhibition on OAT-4 transporting 14C-UA (14C-uric acid)) is 5.10.

As for `O=C(O)CSc1nnc(Br)n1-c1ccc(C2(O)CC2)c2ccccc12` [Compound M3], the Amount of lesinurad and metabolites (Total 100) was 7.9% in [8]; “not detected” in the data set with Liver cells [2]; “not detected” in the data set with Liver cells [3]; 1.45% in the data set with Liver cells [4]; 2.24% in the data set with Liver cells [5]. Further, the “Percentage of the administered dose” value in data set [1] (Faeces) is reported as 0.3%; in data set [1] (Urine), 12.0%.

As to `O=C(O)CSc1nnc(Br)n1-c1c(Cl)cc(C2CC2)c2ccccc12` (single isomer, unassigned) [Compound 1b], on URAT-1, the pIC50 is under 4.70. In the data set with human liver cells, the Metabolite detection result is reported as “no metabolite was detected” and the UV area percentage is recorded as 100%. Further, in [6] (setting [12]), the “Apparent volume of distribution Vdss” value was 0.661 L/kg, the “Area under the curve AUG0-inf” value worked out at 16.092 µM·h, the “Clearance rate Cl” value came to 4.78 mL/min/kg and the “Half-life T1/2” value amounted to 4.28 h. The “Residence time MRT0-inf” value in data set [6] (setting [12]) is listed as 2.34 h. Moreover, the C0 in data set [6] (IV, 2 mg/kg, listed as Compound 1b (crystal form C), 2 mg/kg) came to 42.1 µM. In [6] (setting [13]), the “Area under the curve AUG0-inf” value worked out at 62.456 µM·h, the “Bioavailability F” value is reported as 77.6%, the “Half-life T1/2” value amounted to 4.46 h and the “Residence time MRT0-inf” value turned out to be 5.74 h. Further, in data set [6] (setting [13]), the “Time to peak Tmax” value turned out to be 2.33 h and the “Mean drug concentration in urine” value was found to be 7.976 µM. For the same compound, the Cmax in data set [6] (PO, 10 mg/kg, listed as Compound 1b (crystal form C), 10 mg/kg) amounted to 13.2 µM. In [6], the “Mutual transformation between the two axially chiral isomers in vivo” value is recorded as “no mutual transformation”.
